Experimental findings from ChEMBL document CHEMBL3352118, “Inhibitors of Mutant IDH for the Treatment of Cancer” (ACS Med Chem Lett, 2014) are described below.

This experiment addresses Isocitrate dehydrogenase [NADP] cytoplasmic (Homo sapiens, UniProt O75874, R132H). The experiment in a line: Inhibition of IDH1 R132H mutant (unknown origin) using a-ketoglutarate as substrate by fluorescence biochemical assay.

For orientation: IC50 means the concentration that inhibits the measured activity by half. A lower IC50 goes with greater potency in that assay.

Where only a bound is given, the exact number is not on record here.

Chain of Isocitrate dehydrogenase [NADP] cytoplasmic (O75874 2-414 R132H limits assumed): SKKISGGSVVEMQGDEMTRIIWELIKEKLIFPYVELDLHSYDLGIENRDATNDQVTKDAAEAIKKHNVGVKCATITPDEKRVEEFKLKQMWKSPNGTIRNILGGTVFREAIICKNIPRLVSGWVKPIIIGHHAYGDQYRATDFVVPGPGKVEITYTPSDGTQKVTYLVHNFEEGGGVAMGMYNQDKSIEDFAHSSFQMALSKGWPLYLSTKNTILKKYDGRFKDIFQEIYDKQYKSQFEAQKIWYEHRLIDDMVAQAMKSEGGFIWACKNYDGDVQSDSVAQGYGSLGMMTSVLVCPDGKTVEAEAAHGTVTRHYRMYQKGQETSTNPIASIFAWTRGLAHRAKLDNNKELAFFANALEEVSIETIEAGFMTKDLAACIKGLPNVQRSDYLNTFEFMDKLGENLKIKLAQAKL

The compound `C[C@H](Nc1nccc(N2C(=O)OC[C@]2(C)C2CC2)n1)c1ccc(CN2CCC(O)(C(F)(F)F)CC2)cc1F` displayed an IC50 of less than 15.9 nM. For `C[C@H](Nc1nccc(N2C(=O)OC[C@]2(C)C2CC2)n1)c1ccc(CN2CCC(N)CC2)c(F)c1` the value was 194 nM.
